We go through 1 molecule from patent US8959984B2, “Proteome-wide quantification of small molecule binding to cellular target proteins” (priority 2007, dated 2015).

In general, Ki refers to the equilibrium dissociation constant of an inhibitor or competing ligand from its target.

Holding throughout (test): binding to VI16742 beads (HeLa lysate, SILAC MS)
Assay [1] deals with T1, 2-PDE (IPI00174390) (Homo sapiens, UniProt Q6L8Q7).
T1 construct: endogenous in cells; host or cells: HeLa S3 cell lysate
T1 sequence (Q6L8Q7 43-609): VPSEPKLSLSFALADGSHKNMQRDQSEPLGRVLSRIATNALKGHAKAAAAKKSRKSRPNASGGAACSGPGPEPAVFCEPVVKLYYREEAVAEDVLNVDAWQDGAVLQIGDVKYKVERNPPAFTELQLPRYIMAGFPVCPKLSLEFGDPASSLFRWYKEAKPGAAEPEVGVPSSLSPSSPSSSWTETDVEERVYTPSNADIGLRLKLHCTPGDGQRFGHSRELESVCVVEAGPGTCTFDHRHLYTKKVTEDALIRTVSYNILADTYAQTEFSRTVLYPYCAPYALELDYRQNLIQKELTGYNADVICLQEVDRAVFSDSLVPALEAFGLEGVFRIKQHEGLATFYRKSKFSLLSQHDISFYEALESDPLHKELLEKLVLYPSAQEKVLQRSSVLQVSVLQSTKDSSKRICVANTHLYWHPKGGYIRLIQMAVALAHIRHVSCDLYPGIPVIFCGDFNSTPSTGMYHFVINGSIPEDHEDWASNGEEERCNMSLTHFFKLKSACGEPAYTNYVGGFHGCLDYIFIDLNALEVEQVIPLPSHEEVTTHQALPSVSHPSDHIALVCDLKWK
An excerpt:
(§1) In an alternative implementation of the chemical proteomic approach according to the invention, the broadly-selective pyrido[2,3-d]pyrimidine-based kinase inhibitor VI16742 has been used for affinity capture (FIG. 10a). […] As shown by gene ontology analysis, the corresponding molecular functions were highly over-represented in proteins specifically retained by the inhibitor resin (FIG. 10b).

The target in assay [2] is T2, AGL (IPI00328318) (Homo sapiens, UniProt P35573).
T2 construct: endogenous in cells; host or cells: HeLa S3
T2 sequence (P35573 whole entry): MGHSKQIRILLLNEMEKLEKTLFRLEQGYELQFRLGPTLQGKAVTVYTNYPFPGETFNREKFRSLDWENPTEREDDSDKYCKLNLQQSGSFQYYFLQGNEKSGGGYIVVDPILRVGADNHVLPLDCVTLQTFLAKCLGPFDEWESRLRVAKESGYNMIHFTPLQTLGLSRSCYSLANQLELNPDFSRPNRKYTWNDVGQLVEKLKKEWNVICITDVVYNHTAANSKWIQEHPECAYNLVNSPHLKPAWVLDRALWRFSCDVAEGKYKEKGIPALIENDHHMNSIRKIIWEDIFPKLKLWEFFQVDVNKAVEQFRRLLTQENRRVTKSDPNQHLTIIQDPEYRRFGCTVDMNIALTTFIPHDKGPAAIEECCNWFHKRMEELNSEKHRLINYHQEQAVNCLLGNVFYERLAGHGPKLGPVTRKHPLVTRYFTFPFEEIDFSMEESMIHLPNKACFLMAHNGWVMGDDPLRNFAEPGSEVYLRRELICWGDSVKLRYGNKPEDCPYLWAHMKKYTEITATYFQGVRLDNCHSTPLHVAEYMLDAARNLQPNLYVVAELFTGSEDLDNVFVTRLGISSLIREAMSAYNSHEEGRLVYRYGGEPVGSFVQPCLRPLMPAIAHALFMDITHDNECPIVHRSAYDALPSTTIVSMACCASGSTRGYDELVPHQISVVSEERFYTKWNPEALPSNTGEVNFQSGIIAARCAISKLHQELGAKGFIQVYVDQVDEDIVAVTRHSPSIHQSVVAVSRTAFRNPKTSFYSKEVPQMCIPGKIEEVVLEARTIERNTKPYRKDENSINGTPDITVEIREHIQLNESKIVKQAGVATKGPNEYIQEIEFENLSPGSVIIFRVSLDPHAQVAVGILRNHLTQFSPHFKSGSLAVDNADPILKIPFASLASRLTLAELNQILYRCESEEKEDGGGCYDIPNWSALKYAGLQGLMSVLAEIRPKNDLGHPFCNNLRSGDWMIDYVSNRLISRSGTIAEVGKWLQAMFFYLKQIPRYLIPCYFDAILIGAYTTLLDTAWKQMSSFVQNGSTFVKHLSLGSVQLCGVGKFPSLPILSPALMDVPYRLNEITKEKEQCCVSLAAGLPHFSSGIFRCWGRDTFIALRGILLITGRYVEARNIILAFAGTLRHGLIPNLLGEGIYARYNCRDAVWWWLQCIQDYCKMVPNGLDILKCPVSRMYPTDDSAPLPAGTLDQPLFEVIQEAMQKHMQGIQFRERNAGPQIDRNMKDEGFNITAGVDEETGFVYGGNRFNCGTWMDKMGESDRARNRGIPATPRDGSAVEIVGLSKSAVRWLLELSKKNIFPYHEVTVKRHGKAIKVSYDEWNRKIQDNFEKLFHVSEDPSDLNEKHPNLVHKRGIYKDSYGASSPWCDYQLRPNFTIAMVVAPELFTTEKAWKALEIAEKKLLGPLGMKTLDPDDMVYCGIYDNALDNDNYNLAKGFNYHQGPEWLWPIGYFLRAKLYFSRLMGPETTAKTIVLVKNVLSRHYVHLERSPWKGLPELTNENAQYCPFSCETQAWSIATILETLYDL
Description: as §1

For assay [3], the target named is T3, GLO1 (IPI00220766) (Homo sapiens, UniProt Q04760).
T3 construct: endogenous in cells; host or cells: HeLa S3
T3 sequence (Q04760 2-184 limits assumed): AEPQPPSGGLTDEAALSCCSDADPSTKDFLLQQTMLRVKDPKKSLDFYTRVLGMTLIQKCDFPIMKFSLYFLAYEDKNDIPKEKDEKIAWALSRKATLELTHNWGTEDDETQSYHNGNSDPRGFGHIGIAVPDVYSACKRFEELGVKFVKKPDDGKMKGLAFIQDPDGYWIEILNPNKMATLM
Description: as §1

Assay [4] deals with T4, IKKb (IKBKB, IPI00024709) (Homo sapiens, UniProt O14920).
T4 construct: endogenous in cells; host or cells: HeLa S3
T4 sequence (O14920 1-756): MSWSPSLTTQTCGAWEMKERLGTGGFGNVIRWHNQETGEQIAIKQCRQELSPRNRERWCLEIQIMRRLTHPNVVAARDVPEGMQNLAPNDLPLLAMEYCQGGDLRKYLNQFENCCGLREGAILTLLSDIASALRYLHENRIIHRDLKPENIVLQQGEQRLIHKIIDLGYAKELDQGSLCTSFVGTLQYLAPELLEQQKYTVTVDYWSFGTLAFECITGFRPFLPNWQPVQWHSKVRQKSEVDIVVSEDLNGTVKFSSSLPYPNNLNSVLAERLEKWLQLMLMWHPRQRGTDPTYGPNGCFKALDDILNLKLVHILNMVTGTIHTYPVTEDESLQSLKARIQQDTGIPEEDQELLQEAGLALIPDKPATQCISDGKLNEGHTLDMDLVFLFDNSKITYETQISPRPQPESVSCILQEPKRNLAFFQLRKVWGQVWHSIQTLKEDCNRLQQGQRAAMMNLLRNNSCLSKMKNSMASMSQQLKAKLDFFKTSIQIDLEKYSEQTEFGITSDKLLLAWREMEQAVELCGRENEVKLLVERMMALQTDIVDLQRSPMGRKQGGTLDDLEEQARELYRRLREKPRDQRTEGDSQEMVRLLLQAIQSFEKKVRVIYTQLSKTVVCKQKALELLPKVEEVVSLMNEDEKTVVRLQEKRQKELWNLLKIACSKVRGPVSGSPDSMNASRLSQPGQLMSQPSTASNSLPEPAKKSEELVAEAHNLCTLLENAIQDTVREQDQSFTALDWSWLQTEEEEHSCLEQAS
Description: as §1

For assay [5], the target named is T5, PDE4D (IPI00002449) (Homo sapiens, UniProt Q08499).
T5 construct: endogenous in cells; host or cells: HeLa S3 cell lysate
T5 sequence (Q08499 whole entry): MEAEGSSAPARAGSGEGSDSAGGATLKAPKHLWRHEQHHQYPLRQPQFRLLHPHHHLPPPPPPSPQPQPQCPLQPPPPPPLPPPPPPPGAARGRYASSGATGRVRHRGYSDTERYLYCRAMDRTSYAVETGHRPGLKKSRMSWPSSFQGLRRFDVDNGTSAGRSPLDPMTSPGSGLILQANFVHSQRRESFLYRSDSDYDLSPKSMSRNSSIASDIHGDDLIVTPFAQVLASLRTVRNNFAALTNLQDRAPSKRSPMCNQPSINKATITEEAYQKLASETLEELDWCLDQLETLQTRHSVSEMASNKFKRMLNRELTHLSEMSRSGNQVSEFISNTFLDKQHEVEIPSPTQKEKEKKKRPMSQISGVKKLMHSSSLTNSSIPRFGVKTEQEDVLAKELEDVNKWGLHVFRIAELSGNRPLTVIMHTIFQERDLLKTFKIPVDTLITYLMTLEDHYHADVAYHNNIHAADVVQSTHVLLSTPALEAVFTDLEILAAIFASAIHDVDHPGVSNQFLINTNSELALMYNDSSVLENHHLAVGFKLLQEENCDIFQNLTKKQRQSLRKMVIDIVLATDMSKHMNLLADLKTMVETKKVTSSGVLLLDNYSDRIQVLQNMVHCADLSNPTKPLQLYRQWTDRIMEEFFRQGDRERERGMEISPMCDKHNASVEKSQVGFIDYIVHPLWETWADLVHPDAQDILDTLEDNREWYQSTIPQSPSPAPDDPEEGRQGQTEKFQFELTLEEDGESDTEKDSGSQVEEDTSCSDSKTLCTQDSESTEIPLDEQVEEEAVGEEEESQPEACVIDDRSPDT
Description: as §1

The target of assay [6] is T6, SLK (IPI00022827) (Homo sapiens, UniProt Q9H2G2).
T6 construct: endogenous in cells; host or cells: HeLa S3
T6 sequence (Q9H2G2 whole entry): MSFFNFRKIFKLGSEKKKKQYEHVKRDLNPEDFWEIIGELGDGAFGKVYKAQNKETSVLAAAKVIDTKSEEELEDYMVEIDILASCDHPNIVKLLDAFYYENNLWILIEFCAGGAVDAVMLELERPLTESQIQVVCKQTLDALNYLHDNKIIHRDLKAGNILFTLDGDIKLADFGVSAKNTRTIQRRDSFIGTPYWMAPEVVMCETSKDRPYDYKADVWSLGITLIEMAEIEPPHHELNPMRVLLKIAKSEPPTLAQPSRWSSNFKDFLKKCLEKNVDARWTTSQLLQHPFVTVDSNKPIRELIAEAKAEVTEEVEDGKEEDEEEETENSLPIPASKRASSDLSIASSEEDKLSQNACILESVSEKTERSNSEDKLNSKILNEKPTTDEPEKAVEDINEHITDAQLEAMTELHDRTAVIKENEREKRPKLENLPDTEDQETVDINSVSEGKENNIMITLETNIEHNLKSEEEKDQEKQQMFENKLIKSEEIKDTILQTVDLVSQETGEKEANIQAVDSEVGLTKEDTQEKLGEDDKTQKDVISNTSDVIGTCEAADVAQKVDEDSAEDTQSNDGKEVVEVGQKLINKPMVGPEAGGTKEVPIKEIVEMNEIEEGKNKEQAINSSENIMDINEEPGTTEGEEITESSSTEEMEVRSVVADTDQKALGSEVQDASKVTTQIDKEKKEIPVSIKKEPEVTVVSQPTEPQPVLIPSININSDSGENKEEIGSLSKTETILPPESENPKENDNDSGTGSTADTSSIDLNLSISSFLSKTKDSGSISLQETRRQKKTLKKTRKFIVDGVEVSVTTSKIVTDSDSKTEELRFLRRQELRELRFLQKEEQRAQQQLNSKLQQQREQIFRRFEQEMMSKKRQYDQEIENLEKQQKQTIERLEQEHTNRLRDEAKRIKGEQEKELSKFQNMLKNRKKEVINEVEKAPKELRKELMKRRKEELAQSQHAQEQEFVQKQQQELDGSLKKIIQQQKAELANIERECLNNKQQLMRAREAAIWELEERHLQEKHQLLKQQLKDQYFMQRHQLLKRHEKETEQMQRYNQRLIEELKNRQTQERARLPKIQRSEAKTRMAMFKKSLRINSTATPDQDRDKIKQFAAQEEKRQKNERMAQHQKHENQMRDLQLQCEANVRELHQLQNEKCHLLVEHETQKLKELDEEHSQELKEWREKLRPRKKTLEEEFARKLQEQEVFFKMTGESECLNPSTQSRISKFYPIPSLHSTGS
Description: as §1

Where [7] appears, read: control beads vs first incubation.

For `CC(C)n1c(=O)ccc2cnc(Nc3ccc(OCCN)cc3)nc21` [V16742], the “rAVERAGE (CTRL/1 INC)” value is 0.03 in assay [1] (setting [7]); 0.08 in assay [2] (setting [7]); 0.07 in assay [3] (setting [7]); 0.06 in assay [4] (setting [7]); 0.05 in assay [5] (setting [7]); 0.05 in assay [6] (setting [7]). The inhibition constant (Ki) in assay [1] (immobilized VI16742) worked out at 100 µM; in assay [2] (immobilized VI16742), 218 µM; in assay [3] (immobilized VI16742), 133 µM; in assay [4] (immobilized VI16742) it was 201 µM; in assay [5] (immobilized VI16742), 102 µM; in assay [6] (immobilized VI16742), 217 µM. Also, the “rAVERAGE (2 INC/1 INC)” value in assay [1] (second vs first incubation) came out at 0.66; in assay [2] (second vs first incubation), 0.81; in assay [3] (second vs first incubation), 0.72; in assay [4] (second vs first incubation), 0.79; in assay [5] (second vs first incubation), 0.66; in assay [6] (second vs first incubation), 0.81. Further, the figures for the “r (5 h/2.5 h INC. TIME)” value in assay [3] (5 h vs 2.5 h incubation time), in assay [5] (5 h vs 2.5 h incubation time) and in assay [6] (5 h vs 2.5 h incubation time) were 1.39, 1.09 and 1.87, respectively. The “r (3 MG/1 MG LYSATE)” value in assay [5] (3 mg vs 1 mg lysate) is on record as 2.48; in assay [6] (3 mg vs 1 mg lysate), 3.22.
